The values that follow come from ChEMBL document CHEMBL3507680, “University of Dundee, Gates Library screen for HepG2 cell viability”.

SMILES strings stand for the structures.

This data set can be described thus: Human HepG2 cell viability assay in 384 well format. In kind it is toxicity, cell-based. The following applies: HepG2 cells, read-out: Inhibition. The arrangement: dose 125 nL, time 70.5 hour; cytotoxicity at 70.5 h: concentration not given beside the values.
For `COC(=O)C1CCN(C(=O)c2nnc3ccc(C)cc3n2)CC1`, the cytotoxicity at 70.5 h is -6.57%.
Take `CCc1nccn1C1CCCN(C(=O)c2ccc3nnc(C)n3c2)C1` (stereo not given): the cytotoxicity at 70.5 h was -2.12%.
With `NC(=O)C(CNC(=O)COCC(F)(F)F)Cc1ccc(F)cc1` (stereo not given), the cytotoxicity at 70.5 h was -18.2%.
On to `COc1nccnc1N1CCN(Cc2cccc(F)c2)C(=O)C1`, for which the cytotoxicity at 70.5 h stood at 16.1%.
For `CC(C)(C)C(O)CN1CCN(C(=O)c2cccc3ncccc23)CC1` (stereo not given), the cytotoxicity at 70.5 h amounted to 20.7%.
Next, `CCCN1CCC(CNC(=O)N2CCCC2c2c(C)n[nH]c2C)CC1` (stereo not given): 3.87%.
With `COC[C@@]12CCO[C@@H]1CCN(C(=O)c1ccc(F)c(F)c1)C2`, the cytotoxicity at 70.5 h was determined as 0.0264%.
With `COC(=O)c1ccc(CN(C)C(=O)c2cnsn2)cc1`, the cytotoxicity at 70.5 h is -14.6%.
Next, `CC(C)CCn1ccc(NC2CCSC2)n1` (stereo not given): -8.47%.
Next, `Cc1cs/c(=N\C(=O)c2c3c(nc4onc(C)c24)CCC3)[nH]1`: -19.5%.
Take `Cc1cc(C)n(-c2ccc3nnc(C)n3n2)n1`: the cytotoxicity at 70.5 h was determined as 18%.
As for `O=C(C1CCC1)N1CCN(c2snc3ccccc23)CC1`, the cytotoxicity at 70.5 h was determined as 44.7%.
`OC(c1cccs1)C1CCN(c2ncccn2)CC1` (stereo not given): the cytotoxicity at 70.5 h was -8.6%.
Next, `CC(=O)c1cccc(S(=O)(=O)NCc2cccnc2N(C)C)c1`: -6.06%; `N#CCC(=O)NCc1nnc2n1CCN(Cc1nccs1)C2`: -4.61%; `CCN1CCOCC2(CCCN(C(=O)c3cccc(O)c3)C2)C1` (stereo not given): -6.13%.
For the molecule `CSC(CNS(N)(=O)=O)c1cccc(Cl)c1` (stereo not given), the cytotoxicity at 70.5 h was -1.44%.
As for `Cc1ncc(C(=O)NCCNc2ccncc2)s1`, the cytotoxicity at 70.5 h is -3.98%.
As to `CCOCC1CN(C(=O)c2ccncc2)Cc2nn(C)cc21` (stereo not given), the cytotoxicity at 70.5 h is -18%.
`CCOCCCC(=O)N1CCCC1c1nc(-c2ccccc2F)c[nH]1` (stereo not given): the cytotoxicity at 70.5 h is -2.77%.
Next, `O=C(C1CCS(=O)(=O)CC1)N1CCC(Cc2ccc(F)cc2)CC1`: 3.44%; `O=C1CCC(=O)N1CCN1CCN(c2cc(F)ccc2F)CC1`: -3.59%; `Cn1c(C2CCCN2C(=O)CN2CSCC2=O)nc2ccccc21` (stereo not given): -5.23%.
Next, `CN(Cc1ccc([S+](C)[O-])cc1)c1ccc(C(F)(F)F)cn1` (stereo not given): -4.29%; `CC1CCCCN1Cc1nc(C2CC2)no1` (stereo not given): -4.41%; `Fc1ccc(OCCCN2CC(n3cccn3)C2)cc1`: -8.19%.
For the molecule `CC(=O)N1CC(C)CN(C(=O)c2cccnc2C)c2ccccc21` (stereo not given), the cytotoxicity at 70.5 h was -7.8%.
On to `CC(C)c1nccn1C1CCCN(C(=O)c2ccc3c(c2)COC3)C1` (stereo not given), for which the cytotoxicity at 70.5 h is -8.53%.
Next, `CC(C)(C)C(=O)NC(c1nccs1)C1CCN(CC2CCCCC2)CC1` (stereo not given): 33.7%; `Cc1ccc(C(=O)N2CCOCC2)cc1NCc1ccsc1`: -12.3%; `O=C(CCc1ccccc1Cl)NS(=O)(=O)c1ccc2c(c1)OCCO2`: -2.93%.
In the case of `Cc1ccc(=O)n(CC2(O)CCN(Cc3cc(C)c(O)c(C)c3)CC2)n1`, the cytotoxicity at 70.5 h is 22.7%.
With `Cc1nn(-c2ccccc2)cc1C(=O)N1CCCN2CCCC2C1` (stereo not given), the cytotoxicity at 70.5 h turned out to be 3.01%.
As for `CCCC(C(=O)NC1CCN(S(C)(=O)=O)CC1)c1ccccc1` (stereo not given), the cytotoxicity at 70.5 h is -4.97%.
Next, `Cc1csc(NC(=O)CN2CCCC(Cn3nc(C)nc3C)C2)n1` (stereo not given): -7.51%; `N#Cc1ccccc1OCCN1CCCC1Cn1cccn1` (stereo not given): -4.78%.
Next, `CN1C(=O)CO[C@H]2CN(C(=O)c3ccc4c(c3)CCCC4)C[C@@H]21`: 8.95%; `CCS(=O)(=O)NCCN(CCO)C1CCc2ccccc21` (stereo not given): -58.4%; `Cc1nc(C)n(CC2CCCN(CCc3ccccc3)C2)n1` (stereo not given): 4.16%.
Next, `O=C(c1cc(C2CC2)on1)N1CCC(Oc2ncccc2Br)CC1`: -13.4%.
